Assay results as given in patent US20100120700A1, “METHODS AND COMPOSITIONS FOR TREATING CERVICAL CANCER” (priority 2000, published 2010).
Entries after “also recorded” stand apart in the source; their conditions may differ.

Tested on: c-JUN N-terminal kinase (JNK)
Experiment: Jun kinase assay in microinjected Xenopus oocytes
Type: cell-based
Description: Experimental Design: This experiment was divided into two phases. In the first phase, an MBP-E6 fusion protein (HPV16; see example 4) was microinjected into Xenopus oocytes at different concetrations and then the oocytes were assayed for INK activity. In the second phase, peptides corresponding to the C-termini of non-oncogenic E6 protein (HPV11), HPV16 E6 (oncogenic) or Tax (shown to block oncogenic E6 binding to PDZ domains, FIG. 3) were co-injected with an activating amount of MBP-E6 fusion protein to assess ther abilities to block JNK activation.
Isolation and Microinjection of Oocytes—Xenopus ovarian tissue was surgically removed, and oocytes were defolliculated for 1-1.5 h at room temperature with 2 mg/ml collagenase and 0.5 mg/ml polyvinylpyrrolidone in Ca21-free modified Barth's solution (88 mM NaCl, 1 mM KCl, 0.82 mM MgSO4, 2.4 mM NaHCO3, 10 mM HEPES, pH 7.5). The oocytes were then washed four times with modified Barth's solution. Stage VI oocytes were sorted manually and incubated at 16° C. for at least 10 h in OR2 solution (82.5 mM NaCl, 2.5 mM KCl, 1 mM CaCl2, 1 mM Na2HPO4, 5 mM HEPES, pH 7.5) supplemented with 1 mg/ml bovine serum albumin and […] gentamicin. Immature oocytes were microinjected with purified MBP-E6 protein or E6 protein and peptide and transferred to fresh OR2 for the duration of the time course. Five oocytes were collected per time point, frozen on dry ice, and stored at −80° C.
Lysis of Oocytes, Eggs, and Embryos—Frozen oocytes, eggs, and embryos were thawed rapidly and lysed by pipetting up and down in 60 ml of ice-cold extraction buffer (EB) (0.25 M sucrose, 0.1 M NaCl, 2.5 mM MgCl2, 20 mM HEPES, pH 7.2) containing 10 mM EDTA, protease inhibitors (10 mg/ml leupeptin, 10 mg/ml pepstatin, 10 mg/ml aprotinin, 1 mM phenylmethylsulfonyl fluoride), and phosphatase inhibitors (50 mM 2-glycerophosphate, 1 mM sodium orthovanadate, 2 mM microcystin). Samples were clarified by centrifugation for 2.5 min in a Beckman E microcentrifuge with a right angle rotor. Crude cytoplasm was collected and processed for immunoblotting or kinase assays, as described below.
Jun Kinase Assay—Jun kinase assays were performed as described. Crude oocyte, egg, or embryo cytoplasm was diluted 1:1 in EB and pre-cleared with 20 ml of glutathione-Sepharose beads (Amersham Pharmacia Biotech) for 1 h at 4° C. with moderate shaking. Lysates were incubated with glutathione S-transferase GST-c-Jun-(1-79) fusion protein (hereafter denoted GST-Jun) immobilized on glutathione- Sepharose beads. After 3 h at 4° C., the beads were washed three times with 50 mM HEPES, pH 7.5, 150 mM NaCl, 1% Triton X-100, 1 mM EDTA, 10% glycerol, 10 mM sodium pyrophosphate, 2 mM sodium orthovanadate, 10 mM sodium fluoride, 1 mM phenylmethylsulfonyl fluoride, and 10 mg/ml aprotinin (24) and once with 0.4 ml of kinase buffer (20 mM HEPES, pH 7.5, 10 mM MgCl2, 1 mM dithiothreitol, 200 mM sodium orthovanadate). The bound JNK activity was detected by the addition of 1 mCi of [g-32]JATP. The reaction was terminated after 20 min at 30° C., and the products were resolved by SDS-PAGE. The gels were transferred to PVDF membranes (Hybond; Amersham Pharmacia Biotech) and the incorporation of [32P]phosphate into GST-Jun was visualized by autoradiography. […]

20 mer peptide corresponding to the C-terminus of HPV16 E6 (PDZ ligand), biotinylated in binding assays; ends SSRTRRETQL (SEQ ID NO: 13) [HPV E6 #16]
inhibition of HPV16 E6-dependent JNK activation by co-injected peptide: can be inhibited by peptide representing HPV E6 16 oncoprotein; also recorded: can be inhibited by peptide representing the c-terminus of the HPV16 E6 oncoprotein; also recorded: blocked E6-dependent INK activation
